{"source": "patent US9220758B2", "about": "“Calcitonin products and therapies for treating inflammatory or degenerative diseases” (UGP Therapeutics, Inc., priority 2010, dated 2015)", "type_in_all_cases": "cell-based", "key": {"[1]": {"system": "bovine articular cartilage explants", "assay": "Proteoglycan (GAG) release from cytokine-stimulated bovine cartilage explants (Blyscan assay)", "details": "for normalized GAG (proteoglycan) release: stimulated control = 100%; for highest ineffective concentration, Proteoglycan release: TNFa/IL-1a/OSM 10 ng/ml each, 3 week culture; for effect on proteoglycan release (in words): Example 1, concentrations of Table 1", "description": "(§1) Full thickness cartilage was obtained from the metacarpophalangeal joints of approximately 6 months old calves (from a local slaughterhouse). Cartilage punches (4 mm) were taken from the cartilage and placed in culture dishes with culture medium (DMEM+FCS, penicillin, streptomycin and ascorbic acid). Cartilage explants were weighed and explants between about 5 and about 15 mg were divided into a 96-well culture plate with 1 explant per well and 200 μL culture medium. Cartilage degradation was induced by addition of TNFα, IL-1α, and OSM at 10 ng/mL each to the culture medium. Test agents were then added at different concentrations. During three weeks of culture, the culture medium and the test compounds were refreshed once weekly. In addition fresh calcitonin was added twice weekly to the cartilage explants. Culture medium and cartilage explants were stored at −20° C. until analysis. Each culture condition was cultured in four-fold and the entire experiment was performed on cartilage from three different paws. The different culture conditions are listed below in Table 1.\n(§2) Outcome parameters included (i) CTX-II in the culture medium as a measure of collagen degradation, (ii) GAG in the culture medium and cartilage explant as a measure of proteoglycan degradation, (iii) prostaglandin E2 (PGE2) measured by ELISA in the culture medium as a measure of inflammation, and (iv) general MMP activity in the culture medium. Not all outcome parameters were determined for each of the culture conditions.\nThe proteoglycan release is measured as GAG release per mg cartilage. Proteoglycan (GAG) content was determined in the pooled medium and explants using the Blyscan® colorimetric assay (Biocolor, Belfast, UK). This value is normalized against the control condition of each donor to correct for donor variation. The basal release of unstimulated cartilage is 36% (p<0.05) when the stimulated (IL-1a, TNFα and OSM) control is set to 100%.\nas §1, with “the culture medium to induce cartilage degradation. Test agents” for “the culture medium. Test agents”, “in Table 3.” for “in Table 1.”"}, "[2]": {"system": "bovine articular cartilage explants", "assay": "General MMP activity in culture medium of cytokine-stimulated bovine cartilage explants (fluorogenic substrate)", "details": "stimulated control 23", "description": "as §2\nThe MMP activity was measured as MMP activity per mg cartilage.\nas §1, with “the culture medium to induce cartilage degradation. Test agents” for “the culture medium. Test agents”, “in Table 3.” for “in Table 1.”"}, "[3]": {"system": "bovine articular cartilage explants", "assay": "Collagen (CTX-II) release from cytokine-stimulated bovine cartilage explants (CTX-II ELISA)", "details": "for CTX-II release: stimulated control 135; for highest ineffective concentration, Collagen Release: TNFa/IL-1a/OSM 10 ng/ml each, 3 week culture; for effect on collagen release (in words): Example 1, concentrations of Table 1", "description": "as §1, §2\nCollagen release was measured as CTX-II release per mg cartilage. Collagen was measured in the pooled medium using the CTXII ELISA assay (Pre-clinical Cartilaps®, Nordic Bioscience).\nas §1, with “the culture medium to induce cartilage degradation. Test agents” for “the culture medium. Test agents”, “in Table 3.” for “in Table 1.”"}, "[4]": {"system": "bovine articular cartilage explants", "assay": "PGE2 release from cytokine-stimulated bovine cartilage explants (ELISA)", "details": "for highest ineffective concentration, PGE2 release: TNFa/IL-1a/OSM 10 ng/ml each, 3 week culture; for normalized PGE2 release: stimulated control = 100%", "description": "as §1, §2\nThe prostaglandin E2 release was measured as PGE2 release per mg cartilage. PGE2 was determined in the pooled medium using a PGE2 ELISA from R&D Systems. This value was normalized against the control condition of each donor to correct for donor variation. The basal release of unstimulated cartilage is 11% (p<0.0 1) when the stimulated (IL-1a, TNFα and OSM) control is set to 100%.\nas §1, with “the culture medium to induce cartilage degradation. Test agents” for “the culture medium. Test agents”, “in Table 3.” for “in Table 1.”"}}}
{"compound": "CNC(=O)[C@H](Cc1ccccc1)NC(=O)[C@H](CC(C)C)[C@H](CSc1cccs1)C(=O)NO", "note": "[BB-94]", "values": [{"measurement": "normalized GAG (proteoglycan) release", "setting": "[1]; compound alone at 10 nM", "value": 83, "unit": "%"}, {"measurement": "normalized GAG (proteoglycan) release", "setting": "[1]; compound alone at 100 nM", "value": 80, "unit": "%"}, {"measurement": "MMP activity", "setting": "[2]; compound alone at 10 nM", "value": 13, "unit": "RFU/sec per mg cartilage"}, {"measurement": "MMP activity", "setting": "[2]; compound alone at 100 nM", "value": 4, "unit": "RFU/sec per mg cartilage"}, {"measurement": "CTX-II release", "setting": "[3]; compound alone at 10 nM", "value": 137, "unit": "ng/mg cartilage"}, {"measurement": "CTX-II release", "setting": "[3]; compound alone at 100 nM", "value": 27, "unit": "ng/mg cartilage"}]}
{"compound": "Cc1ccc(-c2cc(C(F)(F)F)nn2-c2ccc(S(N)(=O)=O)cc2)cc1", "note": "[Celebrex ® (celecoxib), celecoxib]", "values": [{"measurement": "highest ineffective concentration, Proteoglycan release", "setting": "[1]", "value": "0.1 to 1", "unit": "µM"}, {"measurement": "highest ineffective concentration, PGE2 release", "setting": "[4]", "value": "<0.01", "unit": "µM"}, {"measurement": "highest ineffective concentration, Collagen Release", "setting": "[3]", "value": ">10", "unit": "µM"}]}
{"compound": "C[C@@H]1C[C@H]2[C@@H]3CCC4=CC(=O)C=C[C@]4(C)[C@@]3(F)[C@@H](O)C[C@]2(C)[C@@]1(O)C(=O)CO", "note": "[Dexamethasone]", "values": [{"measurement": "highest ineffective concentration, Proteoglycan release", "setting": "[1]", "value": "<0.01", "unit": "µM"}, {"measurement": "highest ineffective concentration, PGE2 release", "setting": "[4]", "value": "<0.01", "unit": "µM"}, {"measurement": "highest ineffective concentration, Collagen Release", "setting": "[3]", "value": "<0.01", "unit": "µM"}]}
{"compound": "C[C@H]1c2cccc(O)c2C(=O)C2=C(O)[C@]3(O)C(=O)C(C(N)=O)=C(O)[C@@H](N(C)C)[C@@H]3[C@@H](O)[C@@H]21", "note": "[Doxycycline]", "values": [{"measurement": "highest ineffective concentration, Proteoglycan release", "setting": "[1]", "value": ">100", "unit": "µM"}, {"measurement": "normalized GAG (proteoglycan) release", "setting": "[1]; compound alone at 100 μM", "value": 80, "unit": "%"}, {"measurement": "highest ineffective concentration, PGE2 release", "setting": "[4]", "value": "1 to 10", "unit": "µM"}, {"measurement": "normalized PGE2 release", "setting": "[4]; compound alone at 10 μM", "value": 111, "unit": "%"}, {"measurement": "MMP activity", "setting": "[2]; compound alone at 10 μM", "value": 14, "unit": "RFU/sec per mg cartilage"}, {"measurement": "highest ineffective concentration, Collagen Release", "setting": "[3]", "value": "10 to 100", "unit": "µM"}, {"measurement": "CTX-II release", "setting": "[3]; compound alone at 10 μM", "value": 125, "unit": "ng/mg cartilage"}]}
{"compound": "CNC(=O)[C@H](Cc1c[nH]c2ccccc12)NC(=O)[C@@H](CC(=O)NO)CC(C)C", "note": "[Galardin]", "values": [{"measurement": "effect on proteoglycan release (in words)", "setting": "[1]", "value": "slightly inhibited"}, {"measurement": "highest ineffective concentration, Proteoglycan release", "setting": "[1]", "value": "1 to 10", "unit": "µM"}, {"measurement": "normalized GAG (proteoglycan) release", "setting": "[1]; compound alone at 10 μM", "value": 72, "unit": "%"}, {"measurement": "highest ineffective concentration, PGE2 release", "setting": "[4]", "value": ">10", "unit": "µM"}, {"measurement": "effect on collagen release (in words)", "setting": "[3]", "value": "inhibited"}, {"measurement": "highest ineffective concentration, Collagen Release", "setting": "[3]", "value": "<0.1", "unit": "µM"}]}
{"compound": "Calcitonin", "values": [{"measurement": "highest ineffective concentration, Proteoglycan release", "setting": "[1]", "value": ">0.01", "unit": "µM"}, {"measurement": "normalized GAG (proteoglycan) release", "setting": "[1]; compound alone at 10 nM", "value": 87, "unit": "%"}, {"measurement": "highest ineffective concentration, PGE2 release", "setting": "[4]", "value": ">0.01", "unit": "µM"}, {"measurement": "normalized PGE2 release", "setting": "[4]; compound alone at 10 nM", "value": 117, "unit": "%"}, {"measurement": "MMP activity", "setting": "[2]; compound alone at 10 nM", "value": 15, "unit": "RFU/sec per mg cartilage"}, {"measurement": "highest ineffective concentration, Collagen Release", "setting": "[3]", "value": "0.0003 to 0.001", "unit": "µM"}, {"measurement": "CTX-II release", "setting": "[3]; compound alone at 0.5 nM", "value": 133, "unit": "ng/mg cartilage"}]}
{"compound": "anakinra [Kineret ® (anakinra)]", "values": [{"measurement": "effect on proteoglycan release (in words)", "setting": "[1]", "value": "inhibited all outcome parameters"}, {"measurement": "highest ineffective concentration, Proteoglycan release", "setting": "[1]", "value": "<0.1", "unit": "µg/mL"}, {"measurement": "effect on PGE2 release (in words)", "setting": "[4]; Example 1, concentrations of Table 1", "value": "inhibited all outcome parameters"}, {"measurement": "highest ineffective concentration, PGE2 release", "setting": "[4]", "value": "<0.1", "unit": "µg/mL"}, {"measurement": "effect on collagen release (in words)", "setting": "[3]", "value": "inhibited all outcome parameters"}]}
